Reference: patent US20220186188A1, “Method for Obtaining Pancreatic Progenitor Cells and Pancreatic Islet Beta Cells By Means of Differentiation of Human Pluripotent Stem Cells” (Asia Regenerative Medicine, Ltd., priority 2019, published 2022)

Key:
Format in all cases: cell-based
[1] = tested on: pancreatic progenitor cells and pancreatic islet β cells differentiated from human embryonic stem cells; assay: Immunofluorescence detection of PDX1 and PDX1/INS proteins (human embryonic stem cells)
Protocol: (§1) a pancreatic progenitor cell medium was prepared, the medium in step 1) was replaced with the pancreatic progenitor cell medium, and the cells were cultured in a carbon dioxide incubator at 37 degrees Celsius for 5 days, during which the medium was replaced every day, wherein the composition of the pancreatic progenitor cell medium was: with an MCDB131 medium as a basic medium, and the following components at the working concentrations were further included: 0.5% of bovine serum albumin (BSA), 1.5 g/L of sodium bicarbonate, 1×glutamine (GlutaMAX), 10 mM glucose, 0.25 M vitamin C, 1×insulin-transferrin-selenium-ethanolamine additive (ITS-X), 50 ng/ml of fibroblast growth factor 7 (KGF), 0.5 μM SANT1 (with smo as an inhibitor target), 100 nM retinoic acid (TTNPB), 500 nM phorbol 12,13-dibutyrate (PDBu), 2 μM ALK inhibitor (K02288), and 2 μM WNT signaling pathway inhibitor XAV-939 (not added in a control group), with the concentrations all being final concentrations.
(§2) b. pancreatic islet β cell medium 2 was prepared, the pancreatic islet β cell medium 1 in above-mentioned step a was replaced with the pancreatic islet β cell medium 2, and the cells were cultured in a carbon dioxide incubator at 37 degrees Celsius for 5 days, during which the medium was replaced every day, wherein the composition of the pancreatic islet β cell medium 1 was: with an MCDB131 medium as a basic medium, and the following components at the working concentrations were further included: 20 mM glucose, 2% of bovine serum albumin (BSA), 1.5 g/L of sodium bicarbonate, 1×glutamine (GlutaMAX), 0.05 mM vitamin C, 1×insulin-transferrin-selenium-ethanolamine additive (ITS-X), 2 μM ALK inhibitor (K02288), 1 μM triiodothyronine (T3), 10 μM YO-01027 (Notch signaling pathway inhibitor), and 10 μM zinc sulfate, with the concentrations all being final concentrations; and the composition of the pancreatic islet β cell medium 2 was: with an MCDB131 medium as a basic medium, and the following components at the working concentrations were further included: 20 mM glucose, 2% of bovine serum albumin (BSA), 1.5 g/L of sodium bicarbonate, 1×glutamine (GlutaMAX), 0.05 mM vitamin C, 1×insulin-transferrin-selenium-ethanolamine additive (ITS-X), 1 μM triiodothyronine (T3), 10 μM Repsox (ALK5 inhibitor), 10 μM vitamin E, 10 μg/ml of heparin sodium, 2 μM R428 (Axl inhibitor), 10 μM zinc sulfate, and 10 mM N-acetyl-L-cysteine (N-cys), with the concentrations all being final concentrations.
Cells in a culture plate were washed three times with a phosphate buffered saline (PBS), 3 minutes each time; the cells were fixed with 4% paraformaldehyde at room temperature for 20 minutes, and washed three times with PBS, 3 minutes each time; a blocking solution was prepared in advance (by adding Triton at a final concentration of 0.3% to 9 ml of DPBS, adding donkey serum at a final concentration of 10%, and uniformly mixing); the above-prepared blocking solution was used for blocking and perforation at room temperature for 2 hours; the blocking solution was soaked up, a working concentration of primary antibody prepared with the blocking solution was then added, and the product was left to stand at room temperature for 30 minutes and then placed in a refrigerator at 4° C. overnight; the next day, the product was washed three times with PBS, 3 minutes each time; a fluorescent secondary antibody of donkey serum was added and incubation was carried out at room temperature for 2 hours; in the same way, the product was washed three times with PBS, 3 minutes each time; the product was incubated with a working solution of the nuclear dye DAPI at room temperature for 10 minutes, and washed three times with PBS, 3 minutes each time; then a fluorescence microscope was used for observation and data were collected. […]

[2] = tested on: pancreatic progenitor cells and pancreatic islet β cells differentiated from human embryonic stem cells; assay: Real-time fluorescence quantitative PCR of PDX1, NKX6-1 and INS mRNA (human embryonic stem cells); conditions: qPCR
Protocol: as §1, §2
Cells cultured in a 24-well plate were collected, and washed twice with 500 μl of DPBS at first, then covered with 200 μl of chymotrypsin-trypsin (Trypsin), and placed at 37° C. for 5 minutes of digestion. Whether the cells float in pieces was observed, and the digestion was terminated using 500 μl of DMEM/F12 medium, then the product was centrifuged at 1000 rpm for 3 minutes, the supernatant was removed, and cell pellets were collected and added to a new RNase-free centrifuge tube. […]

[3] = tested on: pancreatic progenitor cells differentiated from human embryonic stem cells; assay: Flow cytometry detection of PDX1 in the pancreatic progenitor cell stage (human embryonic stem cells); conditions: 2 μM inhibitor in pancreatic progenitor cell medium, 5 days, compared with control group without WNT inhibitor
Protocol: as §1, with “concentrations. […]” for “concentrations.”

[4] = 2 μM inhibitor in pancreatic progenitor cell stage
[5] = 2 μM inhibitor in pancreatic progenitor cell stage, GAPDH reference

O=C(Nc1cccc2cccnc12)c1ccc(N2C(=O)[C@@H]3[C@H](C2=O)[C@@H]2C=C[C@H]3C2)cc1 [IWR-1]
number of insulin INS-positive and PDX1 co-stained pancreatic islet β cells in the mature pancreatic islet β cell stage ([1]; 2 μM inhibitor added in pancreatic progenitor cell stage, immunofluorescence): significantly increased | PDX1-positive pancreatic progenitor cells (immunofluorescence) [1, 4]: significantly increased | cell growth (total cell number by DAPI) [1, 4]: did not affect the cell growth | transcription level of the insulin gene INS in the mature pancreatic islet β cell stage ([2]; 2 μM inhibitor added in pancreatic progenitor cell stage): greatly increased | relative expression of mRNA of NKX6-1 in pancreatic progenitor cells [2, 5]: significantly increased | relative expression of mRNA of PDX1 in pancreatic progenitor cells [2, 5]: significantly increased | PDX1-positive pancreatic progenitor cells (flow cytometry) [3]: significantly increased
